Target: bovine cardiac myosin (Bos taurus, UniProt Q9BE39)
Assay: Myosin activation assay (PK/LDH-coupled ATPase, bovine cardiac myofibrils)
Format: biochemical
Conditions: AC20 = concentration at which total response is increased by twenty percent
Summary of the method: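 Skinned bovine cardiac myofibrils (1 mg/mL) in PIPES/MgCl2 buffer pH 6.8 at free Ca2+ giving ~50% (pCa ~6) or <5% (pCa 10) activation, with 50 μM ATP and 3.3% DMSO. ATPase rate from NADH absorbance at 340 nm (PK/LDH coupling) over 15 min at ambient temperature. AC20/AC50 from a four-parameter fit of DMSO-normalised rates.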

Sequence of bovine cardiac myosin (Q9BE39 whole entry): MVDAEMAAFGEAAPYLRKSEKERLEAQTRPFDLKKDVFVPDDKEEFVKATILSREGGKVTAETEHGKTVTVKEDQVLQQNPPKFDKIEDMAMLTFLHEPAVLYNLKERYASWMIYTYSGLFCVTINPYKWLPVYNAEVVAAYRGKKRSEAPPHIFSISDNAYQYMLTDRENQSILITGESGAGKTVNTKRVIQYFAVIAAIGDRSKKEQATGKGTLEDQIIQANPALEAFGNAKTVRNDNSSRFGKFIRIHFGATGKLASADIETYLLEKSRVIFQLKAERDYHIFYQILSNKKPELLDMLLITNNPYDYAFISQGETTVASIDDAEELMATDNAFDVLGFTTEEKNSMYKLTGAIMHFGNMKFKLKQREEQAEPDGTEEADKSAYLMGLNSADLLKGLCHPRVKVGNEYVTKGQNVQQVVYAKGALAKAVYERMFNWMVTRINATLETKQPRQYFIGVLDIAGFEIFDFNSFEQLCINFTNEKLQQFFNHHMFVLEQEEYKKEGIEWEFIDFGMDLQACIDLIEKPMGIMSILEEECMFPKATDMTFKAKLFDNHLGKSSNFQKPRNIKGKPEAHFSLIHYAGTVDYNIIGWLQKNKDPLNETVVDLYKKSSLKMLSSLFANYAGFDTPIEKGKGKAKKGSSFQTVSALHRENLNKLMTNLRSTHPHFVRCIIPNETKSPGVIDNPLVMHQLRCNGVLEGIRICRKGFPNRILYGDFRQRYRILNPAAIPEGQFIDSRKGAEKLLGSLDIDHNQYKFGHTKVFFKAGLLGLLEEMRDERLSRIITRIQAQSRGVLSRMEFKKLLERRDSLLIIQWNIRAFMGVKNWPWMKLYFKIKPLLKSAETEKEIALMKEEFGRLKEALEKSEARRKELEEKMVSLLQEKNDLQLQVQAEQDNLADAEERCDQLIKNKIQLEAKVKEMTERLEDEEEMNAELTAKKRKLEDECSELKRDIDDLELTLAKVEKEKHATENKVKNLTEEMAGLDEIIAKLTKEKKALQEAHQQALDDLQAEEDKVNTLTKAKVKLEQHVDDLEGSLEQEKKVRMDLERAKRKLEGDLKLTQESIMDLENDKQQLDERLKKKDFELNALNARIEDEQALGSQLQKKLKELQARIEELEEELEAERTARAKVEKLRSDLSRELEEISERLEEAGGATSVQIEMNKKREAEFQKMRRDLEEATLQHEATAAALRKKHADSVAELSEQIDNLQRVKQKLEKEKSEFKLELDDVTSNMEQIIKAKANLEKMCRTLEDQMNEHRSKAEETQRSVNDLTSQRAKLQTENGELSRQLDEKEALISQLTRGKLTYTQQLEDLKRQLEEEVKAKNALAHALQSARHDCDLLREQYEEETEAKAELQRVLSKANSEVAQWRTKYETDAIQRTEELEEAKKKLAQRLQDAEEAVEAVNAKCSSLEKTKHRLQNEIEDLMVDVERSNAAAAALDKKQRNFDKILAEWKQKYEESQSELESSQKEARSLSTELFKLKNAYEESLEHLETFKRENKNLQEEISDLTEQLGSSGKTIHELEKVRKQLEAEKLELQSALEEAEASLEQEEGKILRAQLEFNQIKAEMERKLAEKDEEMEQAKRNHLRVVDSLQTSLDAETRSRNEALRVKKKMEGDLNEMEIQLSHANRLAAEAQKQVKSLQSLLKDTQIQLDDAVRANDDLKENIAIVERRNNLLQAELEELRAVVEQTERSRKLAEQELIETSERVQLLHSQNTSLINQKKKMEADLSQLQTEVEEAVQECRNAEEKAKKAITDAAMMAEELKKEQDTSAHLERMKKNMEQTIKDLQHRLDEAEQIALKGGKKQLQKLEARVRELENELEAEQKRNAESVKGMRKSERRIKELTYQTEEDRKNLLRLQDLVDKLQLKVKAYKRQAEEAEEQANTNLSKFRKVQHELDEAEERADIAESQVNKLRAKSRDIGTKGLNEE
Sequence of bovine cardiac myosin (P85100 whole entry partner): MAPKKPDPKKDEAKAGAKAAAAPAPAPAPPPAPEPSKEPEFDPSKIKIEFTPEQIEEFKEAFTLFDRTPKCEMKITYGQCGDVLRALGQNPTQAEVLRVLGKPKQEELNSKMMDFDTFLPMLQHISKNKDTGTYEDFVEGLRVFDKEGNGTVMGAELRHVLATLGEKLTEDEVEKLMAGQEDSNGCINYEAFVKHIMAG
Sequence of bovine cardiac myosin (Q3SZE5 whole entry partner): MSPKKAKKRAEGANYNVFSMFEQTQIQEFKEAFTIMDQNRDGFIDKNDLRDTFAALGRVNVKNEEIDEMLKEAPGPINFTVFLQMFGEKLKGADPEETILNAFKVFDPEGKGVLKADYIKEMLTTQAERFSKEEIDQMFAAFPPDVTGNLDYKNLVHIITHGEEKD

Cc1nocc1NC(=O)N1CCC(C(C)(F)S(=O)(=O)c2cccc(F)c2)CC1 (centres unmarked) [Compound 238, 4-(1-fluoro-1-((3-fluorophenyl)sulfonyl)ethyl)-N-(3-methylisoxazol-4-yl)piperidine-1-carboxamide]
Myosin Activation (AC20): + (+ represents myosin activation value AC20 > 5 μM)

Cn1cc(S(=O)(=O)C(C)(C)C2CCN(C(=O)Nc3ccc(F)nc3)CC2)c(C(F)(F)F)n1 [Compound 111, N-(6-fluoropyridin-3-yl)-4-(2-((1-methyl-3-(trifluoromethyl)-1H-pyrazol-4-yl)sulfonyl)propan-2-yl)piperidine-1-carboxamide]
Myosin Activation (AC20): ++ (++ represents myosin activation value AC20 from 2 μM-5 μM)

C[C@@](F)(C1CCN(C(=O)Nc2ccc(C#N)nc2)CC1)S(=O)(=O)c1cccc(F)c1 [Compound 291, (S)-N-(6-cyanopyridin-3-yl)-4-(1-fluoro-1-((3-fluorophenyl)sulfonyl)ethyl)piperidine-1-carboxamide]
Myosin Activation (AC20): + (+ represents myosin activation value AC20 > 5 μM)

Cc1ccc(NC(=O)N2CCC(C(C)(C)S(=O)(=O)c3cccc(F)c3)CC2)cn1 [Compound 162, 4-(2-((3-fluorophenyl)sulfonyl)propan-2-yl)-N-(6-methylpyridin-3-yl)piperidine-1-carboxamide]
Myosin Activation (AC20): + (+ represents myosin activation value AC20 > 5 μM)

Cn1nccc1S(=O)(=O)C(C)(C)C1CCN(C(=O)Nc2ccc(F)nc2)CC1 [Compound 124, N-(6-fluoropyridin-3-yl)-4-(2-((1-methyl-1H-pyrazol-5-yl)sulfonyl)propan-2-yl)piperidine-1-carboxamide]
Myosin Activation (AC20): + (+ represents myosin activation value AC20 > 5 μM)

Cn1cc(S(=O)(=O)[C@@](C)(F)C2CCN(C(=O)Nc3ccc(F)nc3)CC2)c(C(F)F)n1 [Compound 259, (R)-4-(1-((3-(difluoromethyl)-1-methyl-1H-pyrazol-4-yl)sulfonyl)-1-fluoroethyl)-N-(6-fluoropyridin-3-yl)piperidine-1-carboxamide]
Myosin Activation (AC20): +++ (+++ represents myosin activation value AC20 < 2 μM)

CCn1nccc1S(=O)(=O)C(C)(C)C1CCN(C(=O)Nc2ccnnc2)CC1 [Compound 185, 4-(2-((1-ethyl-1H-pyrazol-5-yl)sulfonyl)propan-2-yl)-N-(pyridazin-4-yl)piperidine-1-carboxamide]
Myosin Activation (AC20): + (+ represents myosin activation value AC20 > 5 μM)

O=C(Nc1ccncc1)N1CCC(C2(S(=O)(=O)c3cccc(F)c3)CC2)CC1 [Compound 35, 4-(1-((3-fluorophenyl)sulfonyl)cyclopropyl)-N-(pyridin-4-yl)piperidine-1-carboxamide]
Myosin Activation (AC20): +++ (+++ represents myosin activation value AC20 < 2 μM)

O=C(Nc1ccns1)N1CCC(C2(S(=O)(=O)c3cccc(F)c3)CC2)CC1 [Compound 217, 4-(1-((3-fluorophenyl)sulfonyl)cyclopropyl)-N-(isothiazol-5-yl)piperidine-1-carboxamide]
Myosin Activation (AC20): +++ (+++ represents myosin activation value AC20 < 2 μM)

Cn1ncc2c(S(=O)(=O)C(F)(F)C3CCN(C(=O)Nc4ccnnc4)CC3)cccc21 [Compound 66, 4-(difluoro((1-methyl-1H-indazol-4-yl)sulfonyl)methyl)-N-(pyridazin-4-yl)piperidine-1-carboxamide]
Myosin Activation (AC20): ++ (++ represents myosin activation value AC20 from 2 μM-5 μM)

CC(F)(C1CCN(C(=O)Nc2ccon2)CC1)S(=O)(=O)c1ccc(C#N)cc1 (centres unmarked) [Compound 283, 4-(1-((4-cyanophenyl)sulfonyl)-1-fluoroethyl)-N-(isoxazol-3-yl)piperidine-1-carboxamide]
Myosin Activation (AC20): ++ (++ represents myosin activation value AC20 from 2 μM-5 μM)

N#Cc1ccccc1S(=O)(=O)C1(C2CCN(C(=O)Nc3ccnnc3)CC2)CC1 [Compound 200, 4-(1-((2-cyanophenyl)sulfonyl)cyclopropyl)-N-(pyridazin-4-yl)piperidine-1-carboxamide]
Myosin Activation (AC20): ++ (++ represents myosin activation value AC20 from 2 μM-5 μM)

Cn1cc(S(=O)(=O)C(C)(C)C2CCN(C(=O)Nc3ccnnc3)CC2)c(C(F)(F)F)n1 [Compound 120, 4-(2-((1-methyl-3-(trifluoromethyl)-1H-pyrazol-4-yl)sulfonyl)propan-2-yl)-N-(pyridazin-4-yl)piperidine-1-carboxamide]
Myosin Activation (AC20): ++ (++ represents myosin activation value AC20 from 2 μM-5 μM)

O=C(Nc1ccnnc1)N1CCC(C(F)(F)S(=O)(=O)c2cccn3ccnc23)CC1 [Compound 22, 4-(Difluoro(imidazo[1,2-a]pyridin-8-ylsulfonyl)methyl)-N-(pyridazin-4-yl)piperidine-1-carboxamide]
Myosin Activation (AC20): + (+ represents myosin activation value AC20 > 5 μM)

O=C(Nc1ccncc1)N1CCC(C2(S(=O)(=O)c3ccc(OC(F)(F)F)cc3)CC2)CC1 [Compound 206, N-(pyridin-4-yl)-4-(1-((4-(trifluoromethoxy)phenyl)sulfonyl)cyclopropyl)piperidine-1-carboxamide]
Myosin Activation (AC20): +++ (+++ represents myosin activation value AC20 < 2 μM)

Cn1cc(S(=O)(=O)C(C)(C)C2CCN(C(=O)Nc3ccon3)CC2)c(Cl)n1 [Compound 27, 4-(2-((3-Chloro-1-methyl-1H-pyrazol-4-yl)sulfonyl)propan-2-yl)-N-(isoxazol-3-yl)piperidine-1-carboxamide]
Myosin Activation (AC20): + (+ represents myosin activation value AC20 > 5 μM)

Cn1cc(S(=O)(=O)C(F)(F)C2CCN(C(=O)Nc3ccnc(CO)c3)CC2)c(C(F)F)n1 [Compound 101, 4-(((3-(difluoromethyl)-1-methyl-1H-pyrazol-4-yl)sulfonyl)difluoromethyl)-N-(2-(hydroxymethyl)pyridin-4-yl)piperidine-1-carboxamide]
Myosin Activation (AC20): ++ (++ represents myosin activation value AC20 from 2 μM-5 μM)

Cn1nccc1S(=O)(=O)C(C)(C)C1CCN(C(=O)Nc2cnns2)CC1 [Compound 193, 4-(2-((1-methyl-1H-pyrazol-5-yl)sulfonyl)propan-2-yl)-N-(1,2,3-thiadiazol-5-yl)piperidine-1-carboxamide]
Myosin Activation (AC20): +++ (+++ represents myosin activation value AC20 < 2 μM)

Cn1cc(S(=O)(=O)C(C)(C)C2CCN(C(=O)Nc3cnoc3)CC2)c(C(F)F)n1 [Compound 157, 4-(2-((3-(difluoromethyl)-1-methyl-1H-pyrazol-4-yl)sulfonyl)propan-2-yl)-N-(isoxazol-4-yl)piperidine-1-carboxamide]
Myosin Activation (AC20): +++ (+++ represents myosin activation value AC20 < 2 μM)

CC(C)(C1CCN(C(=O)Nc2ccncc2)CC1)S(=O)(=O)c1ccccc1C#N [Compound 209, 4-(2-((2-cyanophenyl)sulfonyl)propan-2-yl)-N-(pyridin-4-yl)piperidine-1-carboxamide]
Myosin Activation (AC20): ++ (++ represents myosin activation value AC20 from 2 μM-5 μM)

CC(C)(C1CCN(C(=O)Nc2ccc(F)nc2)CC1)S(=O)(=O)c1ccc(C(F)(F)F)nc1 [Compound 104, N-(6-fluoropyridin-3-yl)-4-(2-((6-(trifluoromethyl)pyridin-3-yl)sulfonyl)propan-2-yl)piperidine-1-carboxamide]
Myosin Activation (AC20): + (+ represents myosin activation value AC20 > 5 μM)

Cc1ccc(NC(=O)N2CCC(C(C)(F)S(=O)(=O)c3cn(C)nc3C(F)(F)F)CC2)cn1 (centres unmarked) [Compound 247, 4-(1-fluoro-1-((1-methyl-3-(trifluoromethyl)-1H-pyrazol-4-yl)sulfonyl)ethyl)-N-(6-methylpyridin-3-yl)piperidine-1-carboxamide]
Myosin Activation (AC20): + (+ represents myosin activation value AC20 > 5 μM)

CC(F)(C1CCN(C(=O)Nc2ccnc(F)c2)CC1)S(=O)(=O)c1cccc(F)c1 (centres unmarked) [Compound 236, 4-(1-fluoro-1-((3-fluorophenyl)sulfonyl)ethyl)-N-(2-fluoropyridin-4-yl)piperidine-1-carboxamide]
Myosin Activation (AC20): ++ (++ represents myosin activation value AC20 from 2 μM-5 μM)

CC(C1CCN(C(=O)Nc2ccncc2)CC1)S(=O)(=O)c1cccc(F)c1 (centres unmarked) [Compound 31, 4-(1-((3-fluorophenyl)sulfonyl)ethyl)-N-(pyridin-4-yl)piperidine-1-carboxamide]
Myosin Activation (AC20): ++ (++ represents myosin activation value AC20 from 2 μM-5 μM)

Cn1cc(S(=O)(=O)C2(C3CCN(C(=O)Nc4ccnnc4)CC3)CCC2)c(C(F)F)n1 [Compound 170, 4-(1-((3-(difluoromethyl)-1-methyl-1H-pyrazol-4-yl)sulfonyl)cyclobutyl)-N-(pyridazin-4-yl)piperidine-1-carboxamide]
Myosin Activation (AC20): +++ (+++ represents myosin activation value AC20 < 2 μM)

CN(C(=O)N1CCC(C(C)(C)S(=O)(=O)c2cccc(F)c2)CC1)c1ccncc1 [Compound 219, 4-(2-((3-fluorophenyl)sulfonyl)propan-2-yl)-N-methyl-N-(pyridin-4-yl)piperidine-1-carboxamide]
Myosin Activation (AC20): + (+ represents myosin activation value AC20 > 5 μM)

CC(C)(C1CCN(C(=O)Nc2ccns2)CC1)S(=O)(=O)c1ccccc1C#N [Compound 201, 4-(2-((2-cyanophenyl)sulfonyl)propan-2-yl)-N-(isothiazol-5-yl)piperidine-1-carboxamide]
Myosin Activation (AC20): + (+ represents myosin activation value AC20 > 5 μM)

Cn1cc(S(=O)(=O)C(C)(F)C2CCN(C(=O)Nc3ccnnc3)CC2)c(C(F)F)n1 (centres unmarked) [Compound 276, 4-(1-((3-(difluoromethyl)-1-methyl-1H-pyrazol-4-yl)sulfonyl)-1-fluoroethyl)-N-(pyridazin-4-yl)piperidine-1-carboxamide]
Myosin Activation (AC20): +++ (+++ represents myosin activation value AC20 < 2 μM)

CC(C)(C1CCN(C(=O)Nc2cnoc2)CC1)S(=O)(=O)c1cccc(F)c1 [Compound 158, 4-(2-((3-fluorophenyl)sulfonyl)propan-2-yl)-N-(isoxazol-4-yl)piperidine-1-carboxamide]
Myosin Activation (AC20): +++ (+++ represents myosin activation value AC20 < 2 μM)

— patent publication US11123337B2, “4-methylsulfonyl-substituted piperidine urea compounds” (MYOKARDIA, INC., priority 2015, dated 2021)
